From publication PMC6333442, “Conserved allosteric pathways for activation of TRPV3 revealed through engineering vanilloid-sensitivity” (eLife, 2019)

Key:
WT mouse TRPV3 = biological target: T1, WT mouse TRPV3 (Mus musculus, UniProt Q8K424); format: cell-based
T1 construct: expressed in transfected cells; host or cells: Xenopus laevis oocytes (cRNA injection, pGEM-HE vector)
T1 sequence (Q8K424 1-791): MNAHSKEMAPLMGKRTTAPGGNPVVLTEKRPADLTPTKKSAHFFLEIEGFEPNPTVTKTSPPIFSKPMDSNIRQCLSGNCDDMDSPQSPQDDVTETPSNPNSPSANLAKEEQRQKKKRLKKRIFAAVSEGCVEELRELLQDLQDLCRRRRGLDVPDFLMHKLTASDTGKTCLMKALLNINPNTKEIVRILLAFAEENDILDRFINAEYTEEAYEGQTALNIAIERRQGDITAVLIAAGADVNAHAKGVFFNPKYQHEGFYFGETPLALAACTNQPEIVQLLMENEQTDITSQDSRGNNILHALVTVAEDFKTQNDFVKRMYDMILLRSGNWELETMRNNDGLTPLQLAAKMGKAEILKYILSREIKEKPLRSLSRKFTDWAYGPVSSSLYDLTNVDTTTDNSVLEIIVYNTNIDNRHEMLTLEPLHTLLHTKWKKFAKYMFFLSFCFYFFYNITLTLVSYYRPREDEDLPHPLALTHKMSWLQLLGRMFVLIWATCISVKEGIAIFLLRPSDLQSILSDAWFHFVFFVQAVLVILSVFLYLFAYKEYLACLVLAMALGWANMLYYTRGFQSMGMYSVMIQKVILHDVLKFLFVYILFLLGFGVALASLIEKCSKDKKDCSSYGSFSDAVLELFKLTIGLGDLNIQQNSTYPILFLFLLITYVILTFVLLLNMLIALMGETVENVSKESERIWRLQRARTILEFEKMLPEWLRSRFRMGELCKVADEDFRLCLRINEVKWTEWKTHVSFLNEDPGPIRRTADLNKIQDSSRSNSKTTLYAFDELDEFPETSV
Experimental: All channel constructs were expressed in Xenopus laevis oocytes and studied using the two-electrode voltage clamp technique (TEVC) following 1–4 days of incubation after cRNA injection. The animal care and experimental procedures were performed in accordance with the Guide for the Care and Use of Laboratory Animals and were approved by the Animal Care and Use Committee of the National Institute of Neurological Disorders and Stroke (Animal protocol number 1253–17). Oocytes were removed surgically and incubated with agitation for 1 hr in a solution containing (in mM) 82.5 NaCl, 2.5 KCl, 1 MgCl2, 5 HEPES, pH 7.6 (with NaOH), and collagenase (2 mg/ml; Worthington Biochemical, Lakewood, NJ). Defolliculated oocytes were injected with cRNA for each of the constructs and incubated at 17°C in a solution containing (in mM) 96 NaCl, 2 KCl, 1 MgCl2, 1.8 CaCl2, 5 HEPES, pH 7.6 (with NaOH), and gentamicin (50 μg/ml, GIBCO-BRL, Gaithersburg, MD). Oocyte membrane voltage was controlled using an OC-725C oocyte clamp (Warner Instruments, Hamden, CT). Data were filtered at 1–3 kHz and digitized at 20 kHz using pClamp software (Molecular Devices, Sunnyvale, CA) and a Digidata 1440A digitizer (Axon Instruments). Microelectrode resistances were 0.1–1 MΩ when filled with 3 M KCl. For recording TRP channel currents, the external recording solution contained (in mM) 100 KCl, 10 HEPES, pH 7.6 (with KOH). Experiments were performed at room temperature (~22°C), except as indicated otherwise. […] Current time courses were obtained by stepping membrane voltage every 2 s from a holding potential of 0 mV to either −60 or +60 mV for 100 ms, and plotting the mean steady-state current at the end of each voltage step as a function of total recording time. I-V relations were obtained similarly, but voltage was stepped every 2 s to a different value, in 10 mV increments and starting at −60 mV.
For temperature-activation experiments, calcium-activated chloride currents were minimized by using calcium-free solution containing 30 µM Caccinh-A01 and recording at negative membrane voltages. Heat stimuli were achieved by passing the external recording solution through glass capillary spirals immersed in a water bath maintained at about 70°C, and recordings were performed during constant perfusion with temperature measured using a thermistor (TA-29, Warner Instruments) located close to the cell. The thermistor was connected to the digitizer via a temperature controller (TC-324B, Warner Instruments) ([Zhang et al., 2018]). Oocytes injected with the various constructs were only studied if un-injected oocytes from the same batch contained a low density of endogenous temperature-sensitive currents at negative membrane voltages. For delivering cold stimuli, the external solution was passed through glass capillary spirals that were immersed in an ice bath. The mean I vs T relations were calculated by automatically binning each of the recordings in temperature intervals of 2°C, and averaging a single data point within each interval per cell. All data analysis was carried out using Igor Pro 6.3 (Wavemetrics, Portland, OR). Q10 values were obtained from Q10 = 10^10 x m, where m is the slope of linear fits to normalized log(current) vs temperature relations (not shown) over temperature intervals ~ 20–34°C or 38 – 45°C ([Zhang et al., 2018]).

[1] = tested on: TRPV3-6M + L596V, L599F, S613K, D618P, S620E, I644F, Q646E, P651K, L653V, I659L or T660A; experiment: Two-electrode voltage clamp, TRPV3-6M with individual pore mutations (no RTx response); format: cell-based, mouse; conditions: RTx 100 nM, 2-APB 3 mM, room temperature
Experimental: All channel constructs were expressed in Xenopus laevis oocytes and studied using the two-electrode voltage clamp technique (TEVC) following 1–4 days of incubation after cRNA injection. The animal care and experimental procedures were performed in accordance with the Guide for the Care and Use of Laboratory Animals and were approved by the Animal Care and Use Committee of the National Institute of Neurological Disorders and Stroke (Animal protocol number 1253–17). Oocytes were removed surgically and incubated with agitation for 1 hr in a solution containing (in mM) 82.5 NaCl, 2.5 KCl, 1 MgCl2, 5 HEPES, pH 7.6 (with NaOH), and collagenase (2 mg/ml; Worthington Biochemical, Lakewood, NJ). Defolliculated oocytes were injected with cRNA for each of the constructs and incubated at 17°C in a solution containing (in mM) 96 NaCl, 2 KCl, 1 MgCl2, 1.8 CaCl2, 5 HEPES, pH 7.6 (with NaOH), and gentamicin (50 μg/ml, GIBCO-BRL, Gaithersburg, MD). Oocyte membrane voltage was controlled using an OC-725C oocyte clamp (Warner Instruments, Hamden, CT). Data were filtered at 1–3 kHz and digitized at 20 kHz using pClamp software (Molecular Devices, Sunnyvale, CA) and a Digidata 1440A digitizer (Axon Instruments). Microelectrode resistances were 0.1–1 MΩ when filled with 3 M KCl. For recording TRP channel currents, the external recording solution contained (in mM) 100 KCl, 10 HEPES, pH 7.6 (with KOH). […]

SMILES | channel activation by RTx after 2-APB pre-stimulation (WT mouse TRPV3; RTx 100 nM after short stimulation with 2-APB (3 mM)) | channel activation by RTx together with heating (WT mouse TRPV3; RTx 100 nM with heating) | channel activation (current response) [1] | channel activation (current response) (WT mouse TRPV3; 2-APB 3 mM, room temperature) | s (slope) of Hill fit, 2-APB concentration-response (WT mouse TRPV3; -60 mV) | EC50 (WT mouse TRPV3; -60 mV, room temperature, Hill fit, read-out: apparent affinity (EC50) for activation by 2-APB) [µM]
C=C(C)[C@]12C[C@@H](C)[C@@]34O[C@](Cc5ccccc5)(O[C@@H]1[C@@H]3C=C(COC(=O)Cc1ccc(O)c(OC)c1)C[C@]1(O)C(=O)C(C)=C[C@@H]41)O2 [RTx, resiniferatoxin] | did not activate | did not elicit any response | RTx-insensitive |  |  | 
NCCOB(c1ccccc1)c1ccccc1 [2-APB, 2-aminoethoxydiphenyl borate] |  |  | still activated | robust responses | 2.63 | 464 ± 12
